Source: PubChem BioAssay (NCI)
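Following 48 hours of exposure in 96-well plates, responses at five concentrations were used to interpolate endpoints linearly. Here, GI50 denotes the concentration required for 50% inhibition of growth. TGI: total growth inhibition.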

What was measured:
Assay in all cases: NCI-60 cell line screen, 48 h; in the data active means GI50 below about 0.43 µM; inactive means the rest
HS 578T breast = tested on: HS 578T breast
SK-MEL-2 melanoma = tested on: SK-MEL-2 melanoma
MCF7 breast = tested on: MCF7 breast
OVCAR-3 ovarian = tested on: OVCAR-3 ovarian
DU-145 prostate = tested on: DU-145 prostate
BT-549 breast = tested on: BT-549 breast
SR leukemia = tested on: SR leukemia
T-47D breast = tested on: T-47D breast
CAKI-1 renal = tested on: CAKI-1 renal
UACC-257 melanoma = tested on: UACC-257 melanoma
A498 renal = tested on: A498 renal
SNB-75 CNS = tested on: SNB-75 CNS
MDA-MB-231 breast = tested on: MDA-MB-231 breast
M14 melanoma = tested on: M14 melanoma
CCRF-CEM leukemia = tested on: CCRF-CEM leukemia
SN12C renal = tested on: SN12C renal
HT29 colon = tested on: HT29 colon
NCI-H522 lung = tested on: NCI-H522 lung
SK-OV-3 ovarian = tested on: SK-OV-3 ovarian
OVCAR-5 ovarian = tested on: OVCAR-5 ovarian
KM12 colon = tested on: KM12 colon
UO-31 renal = tested on: UO-31 renal
SF-539 CNS = tested on: SF-539 CNS
RPMI-8226 leukemia = tested on: RPMI-8226 leukemia
RXF 393 renal = tested on: RXF 393 renal
HOP-62 NSCLC = tested on: HOP-62 NSCLC
HCT-15 colon = tested on: HCT-15 colon
SF-295 CNS = tested on: SF-295 CNS
ACHN renal = tested on: ACHN renal
HL-60(TB) leukemia = tested on: HL-60(TB) leukemia
SF-268 CNS = tested on: SF-268 CNS
SK-MEL-28 melanoma = tested on: SK-MEL-28 melanoma
NCI-H226 lung = tested on: NCI-H226 lung
U251 CNS = tested on: U251 CNS
IGROV1 ovarian = tested on: IGROV1 ovarian
SW-620 colon = tested on: SW-620 colon
SNB-19 CNS = tested on: SNB-19 CNS
A549 NSCLC = tested on: A549 NSCLC
HCC-2998 colon = tested on: HCC-2998 colon
OVCAR-8 ovarian = tested on: OVCAR-8 ovarian
HCT-116 colon = tested on: HCT-116 colon
COLO 205 colon = tested on: COLO 205 colon
HOP-92 NSCLC = tested on: HOP-92 NSCLC
NCI-H460 lung = tested on: NCI-H460 lung
NCI/ADR-RES ovarian = tested on: NCI/ADR-RES ovarian
786-0 renal = tested on: 786-0 renal
LOX IMVI melanoma = tested on: LOX IMVI melanoma
TK-10 renal = tested on: TK-10 renal
NCI-H23 lung = tested on: NCI-H23 lung
MDA-MB-435 = tested on: MDA-MB-435
MOLT-4 leukemia = tested on: MOLT-4 leukemia
MALME-3M melanoma = tested on: MALME-3M melanoma
OVCAR-4 ovarian = tested on: OVCAR-4 ovarian
SK-MEL-5 melanoma = tested on: SK-MEL-5 melanoma
PC-3 prostate = tested on: PC-3 prostate
K-562 leukemia = tested on: K-562 leukemia
UACC-62 melanoma = tested on: UACC-62 melanoma

CC(C)OP(=O)(OC(C)C)c1ncc(-c2ccc(C(F)(F)F)cc2)c(NC2CCCCCC2)n1
> 10 µM: TGI (HS 578T breast) | TGI (SK-MEL-2 melanoma) | TGI (MCF7 breast) | TGI (OVCAR-3 ovarian) | TGI (DU-145 prostate) | TGI (BT-549 breast) | TGI (SR leukemia) | TGI (T-47D breast) | TGI (CAKI-1 renal) | TGI (UACC-257 melanoma) | TGI (A498 renal) | TGI (SNB-75 CNS) | TGI (MDA-MB-231 breast) | TGI (M14 melanoma) | TGI (CCRF-CEM leukemia) | TGI (SN12C renal) | TGI (HT29 colon) | TGI (NCI-H522 lung) | TGI (SK-OV-3 ovarian) | TGI (OVCAR-5 ovarian) | TGI (KM12 colon) | TGI (UO-31 renal) | TGI (SF-539 CNS) | TGI (RPMI-8226 leukemia) | TGI (RXF 393 renal) | TGI (HOP-62 NSCLC) | TGI (HCT-15 colon) | TGI (SF-295 CNS) | TGI (ACHN renal) | TGI (HL-60(TB) leukemia) | TGI (SF-268 CNS) | TGI (SK-MEL-28 melanoma) | TGI (NCI-H226 lung) | TGI (U251 CNS) | TGI (IGROV1 ovarian) | TGI (SW-620 colon) | TGI (SNB-19 CNS) | TGI (A549 NSCLC) | TGI (HCC-2998 colon) | TGI (OVCAR-8 ovarian) | TGI (HCT-116 colon) | TGI (COLO 205 colon) | TGI (HOP-92 NSCLC) | TGI (NCI-H460 lung) | TGI (NCI/ADR-RES ovarian) | TGI (786-0 renal) | TGI (LOX IMVI melanoma) | TGI (TK-10 renal) | TGI (NCI-H23 lung) | TGI (MDA-MB-435) | TGI (MOLT-4 leukemia) | TGI (MALME-3M melanoma) | TGI (OVCAR-4 ovarian) | TGI (SK-MEL-5 melanoma) | TGI (PC-3 prostate) | TGI (K-562 leukemia) | TGI (UACC-62 melanoma)
inactive: GI50 (HS 578T breast) > 10 µM | GI50 (SK-MEL-2 melanoma) > 10 µM | GI50 (MCF7 breast) > 10 µM | GI50 (OVCAR-3 ovarian) > 10 µM | GI50 (DU-145 prostate) > 10 µM | GI50 (BT-549 breast) > 10 µM | GI50 (SR leukemia) > 10 µM | GI50 (T-47D breast) > 10 µM | GI50 (CAKI-1 renal) > 10 µM | GI50 (UACC-257 melanoma) > 10 µM | GI50 (A498 renal) > 10 µM | GI50 (SNB-75 CNS) > 10 µM | GI50 (MDA-MB-231 breast) > 10 µM | GI50 (M14 melanoma) > 10 µM | GI50 (CCRF-CEM leukemia) > 10 µM | GI50 (SN12C renal) > 10 µM | GI50 (HT29 colon) > 10 µM | GI50 (NCI-H522 lung) > 10 µM | GI50 (SK-OV-3 ovarian) > 10 µM | GI50 (OVCAR-5 ovarian) > 10 µM | GI50 (KM12 colon) > 10 µM | GI50 (UO-31 renal) > 10 µM | GI50 (SF-539 CNS) > 10 µM | GI50 (RPMI-8226 leukemia) > 10 µM | GI50 (RXF 393 renal) > 10 µM | GI50 (HOP-62 NSCLC) > 10 µM | GI50 (HCT-15 colon) > 10 µM | GI50 (SF-295 CNS) > 10 µM | GI50 (ACHN renal) > 10 µM | GI50 (HL-60(TB) leukemia) > 10 µM | GI50 (SF-268 CNS) > 10 µM | GI50 (SK-MEL-28 melanoma) > 10 µM | GI50 (NCI-H226 lung) > 10 µM | GI50 (U251 CNS) > 10 µM | GI50 (IGROV1 ovarian) > 10 µM | GI50 (SW-620 colon) > 10 µM | GI50 (SNB-19 CNS) > 10 µM | GI50 (A549 NSCLC) > 10 µM | GI50 (HCC-2998 colon) > 10 µM | GI50 (OVCAR-8 ovarian) > 10 µM | GI50 (HCT-116 colon) > 10 µM | GI50 (COLO 205 colon) > 10 µM | GI50 (HOP-92 NSCLC) > 10 µM | GI50 (NCI-H460 lung) > 10 µM | GI50 (NCI/ADR-RES ovarian) > 10 µM | GI50 (786-0 renal) > 10 µM | GI50 (LOX IMVI melanoma) > 10 µM | GI50 (TK-10 renal) > 10 µM | GI50 (NCI-H23 lung) > 10 µM | GI50 (MDA-MB-435) > 10 µM | GI50 (MOLT-4 leukemia) > 10 µM | GI50 (MALME-3M melanoma) > 10 µM | GI50 (OVCAR-4 ovarian) > 10 µM | GI50 (SK-MEL-5 melanoma) > 10 µM | GI50 (PC-3 prostate) 9.51 µM | GI50 (K-562 leukemia) > 10 µM | GI50 (UACC-62 melanoma) > 10 µM

CCN(Cc1ccccn1)c1ccc(CO)c(Cl)c1
23.3 µM: TGI (OVCAR-3 ovarian)
0.266 µM: TGI (A498 renal)
2.42 µM: TGI (UACC-257 melanoma)
34.7 µM: TGI (OVCAR-4 ovarian)
3.89 µM: TGI (IGROV1 ovarian)
0.744 µM: TGI (TK-10 renal)
7.83 µM: TGI (UACC-62 melanoma)
5.5 µM: TGI (T-47D breast)
inactive: GI50 (HS 578T breast) > 100 µM | GI50 (SK-MEL-2 melanoma) > 76.8 µM | GI50 (MCF7 breast) 2.78 µM | GI50 (OVCAR-3 ovarian) 3.75 µM | GI50 (DU-145 prostate) > 100 µM | GI50 (BT-549 breast) > 100 µM | GI50 (SR leukemia) > 100 µM | GI50 (T-47D breast) 0.927 µM | GI50 (CAKI-1 renal) 39 µM | GI50 (UACC-257 melanoma) 0.719 µM | GI50 (SNB-75 CNS) > 51.7 µM | GI50 (MDA-MB-231 breast) > 100 µM | GI50 (M14 melanoma) > 100 µM | GI50 (CCRF-CEM leukemia) > 100 µM | GI50 (SN12C renal) > 100 µM | GI50 (HT29 colon) > 69.8 µM | GI50 (NCI-H522 lung) > 100 µM | GI50 (SK-OV-3 ovarian) 36.1 µM | GI50 (KM12 colon) > 100 µM | GI50 (UO-31 renal) 69.3 µM | GI50 (SF-539 CNS) > 100 µM | GI50 (RPMI-8226 leukemia) 26.3 µM | GI50 (RXF 393 renal) > 28.4 µM | GI50 (HOP-62 NSCLC) 46.1 µM | GI50 (HCT-15 colon) > 100 µM | GI50 (SF-295 CNS) 4.91 µM | GI50 (ACHN renal) > 100 µM | GI50 (HL-60(TB) leukemia) 46 µM | GI50 (SF-268 CNS) > 100 µM | GI50 (SK-MEL-28 melanoma) > 100 µM | GI50 (U251 CNS) 23.6 µM | GI50 (IGROV1 ovarian) 0.68 µM | GI50 (SW-620 colon) 22.8 µM | GI50 (SNB-19 CNS) > 100 µM | GI50 (A549 NSCLC) 16.6 µM | GI50 (HCC-2998 colon) 18.1 µM | GI50 (OVCAR-8 ovarian) 59.4 µM | GI50 (HCT-116 colon) 1.12 µM | GI50 (COLO 205 colon) 4.65 µM | GI50 (HOP-92 NSCLC) 10 µM | GI50 (NCI-H460 lung) 2.71 µM | GI50 (NCI/ADR-RES ovarian) 52.2 µM | GI50 (786-0 renal) > 100 µM | GI50 (LOX IMVI melanoma) > 100 µM | GI50 (NCI-H23 lung) > 100 µM | GI50 (MDA-MB-435) > 100 µM | GI50 (MOLT-4 leukemia) > 100 µM | GI50 (MALME-3M melanoma) > 100 µM | GI50 (OVCAR-4 ovarian) 2.32 µM | GI50 (SK-MEL-5 melanoma) 72.1 µM | GI50 (PC-3 prostate) > 89.8 µM | GI50 (K-562 leukemia) 17.3 µM | GI50 (UACC-62 melanoma) 0.923 µM
0.332 µM: TGI (NCI-H226 lung)
1.58 µM: TGI (OVCAR-5 ovarian)
16 µM: TGI (COLO 205 colon)
active: GI50 (A498 renal) 0.125 µM | GI50 (OVCAR-5 ovarian) 0.385 µM | GI50 (NCI-H226 lung) 0.151 µM | GI50 (TK-10 renal) 0.199 µM
> 96.6 µM: TGI (HOP-92 NSCLC)
> 100 µM: TGI (HS 578T breast) | TGI (SK-MEL-2 melanoma) | TGI (MCF7 breast) | TGI (DU-145 prostate) | TGI (BT-549 breast) | TGI (SR leukemia) | TGI (CAKI-1 renal) | TGI (SNB-75 CNS) | TGI (MDA-MB-231 breast) | TGI (M14 melanoma) | TGI (CCRF-CEM leukemia) | TGI (SN12C renal) | TGI (HT29 colon) | TGI (NCI-H522 lung) | TGI (SK-OV-3 ovarian) | TGI (KM12 colon) | TGI (UO-31 renal) | TGI (SF-539 CNS) | TGI (RPMI-8226 leukemia) | TGI (RXF 393 renal) | TGI (HOP-62 NSCLC) | TGI (HCT-15 colon) | TGI (SF-295 CNS) | TGI (ACHN renal) | TGI (HL-60(TB) leukemia) | TGI (SF-268 CNS) | TGI (SK-MEL-28 melanoma) | TGI (U251 CNS) | TGI (SW-620 colon) | TGI (SNB-19 CNS) | TGI (A549 NSCLC) | TGI (HCC-2998 colon) | TGI (OVCAR-8 ovarian) | TGI (HCT-116 colon) | TGI (NCI/ADR-RES ovarian) | TGI (786-0 renal) | TGI (LOX IMVI melanoma) | TGI (NCI-H23 lung) | TGI (MDA-MB-435) | TGI (MOLT-4 leukemia) | TGI (MALME-3M melanoma) | TGI (SK-MEL-5 melanoma) | TGI (PC-3 prostate) | TGI (K-562 leukemia)
40.7 µM: TGI (NCI-H460 lung)
